According to PubChem BioAssay AID1259407 (Chemical Carcinogenesis Research Information System (CCRIS), 2018):
The source made the active and inactive calls. No rule for the calls is given here.

Tested on: CCRIS mutagenicity, Ames/micronucleus/aberration tests
Experiment: CCRIS mutagenicity studies

## Cc1ccc(N)cc1N
Test System: AMES SALMONELLA TYPHIMURIUM, Strain/Indicator: TA98, Metabolic Activation: RAT, LIVER, S-9, AROCLOR, Method: PREINCUBATION
  mutagenic call: active; positive
Test System: AMES SALMONELLA TYPHIMURIUM, Strain/Indicator: TA98, Metabolic Activation: RAT, LIVER, S-9, PCB, Method: PREINCUBATION
  mutagenic call: active; positive
Test System: AMES SALMONELLA TYPHIMURIUM, Strain/Indicator: TA98, Metabolic Activation: RAT, LIVER, S-9, PHENOBARBITAL AND 5,6-BENZOFLAVONE, Method: PREINCUBATION
  mutagenic call: active; positive
Test System: AMES SALMONELLA TYPHIMURIUM, Strain/Indicator: TA98, Metabolic Activation: RAT, LIVER, S-9, PHENOBARBITAL AND 5,6-BENZOFLAVONE, Method: SUSPENSION/PLATE
  mutagenic call: active; positive
Test System: AMES SALMONELLA TYPHIMURIUM, Strain/Indicator: TA100, Metabolic Activation: NONE, Method: MICROSUSPENSION
  mutagenic call: inactive; negative
Test System: AMES SALMONELLA TYPHIMURIUM, Strain/Indicator: TA100, Metabolic Activation: NONE, Method: PREINCUBATION
  mutagenic call: inactive; negative
Test System: AMES SALMONELLA TYPHIMURIUM, Strain/Indicator: TA100, Metabolic Activation: NONE, Method: SUSPENSION/PLATE
  mutagenic call: inactive; negative
Test System: AMES SALMONELLA TYPHIMURIUM, Strain/Indicator: TA100, Metabolic Activation: RAT LIVER S-9, AROCLOR 1254, Method: MICROSUSPENSION
  mutagenic call: inactive; negative
Test System: AMES SALMONELLA TYPHIMURIUM, Strain/Indicator: TA100, Metabolic Activation: RAT LIVER S-9, PHENOBARBITAL AND BETA-NAPHTHOFLAVONE, Method: PREINCUBATION
  mutagenic call: active; positive
Test System: AMES SALMONELLA TYPHIMURIUM, Strain/Indicator: TA100, Metabolic Activation: RAT, LIVER, S-9, AROCLOR 1254, Method: STANDARD PLATE
  mutagenic call: active; positive
Test System: AMES SALMONELLA TYPHIMURIUM, Strain/Indicator: TA100, Metabolic Activation: RAT, LIVER, S-9, PCB, Method: PREINCUBATION
  mutagenic call: active; positive
Test System: AMES SALMONELLA TYPHIMURIUM, Strain/Indicator: TA100, Metabolic Activation: RAT, LIVER, S-9, PHENOBARBITAL AND 5,6-BENZOFLAVONE, Method: PREINCUBATION
  mutagenic call: active; positive
Test System: AMES SALMONELLA TYPHIMURIUM, Strain/Indicator: TA100, Metabolic Activation: RAT, LIVER, S-9, PHENOBARBITAL AND 5,6-BENZOFLAVONE, Method: SUSPENSION/PLATE
  mutagenic call: active; positive
Test System: AMES SALMONELLA TYPHIMURIUM, Strain/Indicator: TA1535, Metabolic Activation: NONE, Method: PREINCUBATION
  mutagenic call: inactive; negative
Test System: AMES SALMONELLA TYPHIMURIUM, Strain/Indicator: TA1535, Metabolic Activation: RAT LIVER S-9, PHENOBARBITAL AND BETA-NAPHTHOFLAVONE, Method: PREINCUBATION
  mutagenic call: inactive; negative
Test System: AMES SALMONELLA TYPHIMURIUM, Strain/Indicator: TA1537, Metabolic Activation: NONE, Method: PREINCUBATION
  mutagenic call: inactive; negative
Test System: AMES SALMONELLA TYPHIMURIUM, Strain/Indicator: TA1537, Metabolic Activation: RAT LIVER S-9, PHENOBARBITAL AND BETA-NAPHTHOFLAVONE, Method: PREINCUBATION
  mutagenic call: active; positive
Test System: AMES SALMONELLA TYPHIMURIUM, Strain/Indicator: TA1537, Metabolic Activation: RAT, LIVER, S-9, AROCLOR 1254 (4 OR 10%), Method: STANDARD PLATE
  mutagenic call: inactive; negative
Test System: AMES SALMONELLA TYPHIMURIUM, Strain/Indicator: TA1538, Metabolic Activation: RAT, LIVER, S-9, AROCLOR 1254 (4 OR 10%), Method: STANDARD PLATE
  mutagenic call: active; positive
Test System: AMES SALMONELLA TYPHIMURIUM, Strain/Indicator: TA1538, Metabolic Activation: RAT, LIVER, S-9, AROCLOR 1254, Method: STANDARD PLATE
  mutagenic call: active; positive
Test System: AMES SALMONELLA TYPHIMURIUM, Strain/Indicator: YG1024, Metabolic Activation: PLANT CELLS, Method: PREINCUBATION
  mutagenic call: active; positive
Test System: CHINESE HAMSTER V-79, Strain/Indicator: V-79/6-THIOGUANINE, Metabolic Activation: NONE, Method: SUSPENSION/PLATE
  mutagenic call: inactive; negative
Test System: CHINESE HAMSTER V-79, Strain/Indicator: V-79/6-THIOGUANINE, Metabolic Activation: RAT, LIVER, S-9, PHENOBARBITAL AND BETA-NAPHTHOFLAVONE, Method: SUSPENSION/PLATE
  mutagenic call: inactive; negative
Test System: E.COLI, Strain/Indicator: WP2UVRA, Metabolic Activation: NONE, Method: PREINCUBATION
  mutagenic call: inactive; negative
Test System: E.COLI, Strain/Indicator: WP2UVRA, Metabolic Activation: RAT LIVER S-9, PHENOBARBITAL AND BETA-NAPHTHOFLAVONE, Method: PREINCUBATION
  mutagenic call: inactive; negative
Test System: UDS HUMAN HEPATOMA HEPG2 CELLS, Strain/Indicator: THY INCORP, Metabolic Activation: NONE, Method: AUTORADIOGRAPHY
  mutagenic call: active; positive
Test System: UDS RAT HEPATOCYTES, Strain/Indicator: BROMODEOXYURIDINE INCORP, Metabolic Activation: NONE, Method: FLOW CYTOMETRIC ANALYSIS
  mutagenic call: active; positive
Test System: UDS RAT HEPATOCYTES, Strain/Indicator: THY INCORP, Metabolic Activation: NONE, Method: AUTORADIOGRAPHY
  mutagenic call: active; positive
